Conditions: 1.0% DMSO, 24-hour incubation at ambient temperature, maximum theoretical 100 μM; for pH 2 solubility: 0.1N HCl, first value of the cell; for pH 7 solubility: 1×PBS buffer (pH 7.4), second value of the cell

Row | SMILES | pH 2 solubility | pH 7 solubility
1 | CC(C)(C#Cc1ccc(-c2ccc(Cl)c3c(N(C(=O)NC(COP(=O)(O)O)COP(=O)(O)O)S(C)(=O)=O)nn(CC(F)(F)F)c23)c([C@H](Cc2cc(F)cc(F)c2)NC(=O)Cn2nc(C(F)(F)F)c3c2C(F)(F)[C@@H]2C[C@H]32)n1)S(C)(=O)=O [Compound 38, 2-(3-(4-chloro-7-(2-((S)-1-(2-((3bS,4aR)-5,5-difluoro-3-(trifluoromethyl)-3b,4,4a,5-tetrahydro-1H-cyclopropa[3,4]cyclopenta[1,2-c]pyrazol-1-yl)acetamido)-2-(3,5-difluorophenyl)ethyl)-6-(3-methyl-3-(methylsulfonyl)but-1-yn-1-yl)pyridin-3-yl)-1-(2,2,2-trifluoroethyl)-1H-indazol-3-yl)-3-(methylsulfonyl)ureido)propane-1,3-diyl bis(dihydrogen phosphate)] | 10 μM | 16 μM
2 | CC(C)(CO)NC(=O)N(c1nn(CC(F)(F)F)c2c(-c3ccc(C#CC(C)(C)S(C)(=O)=O)nc3[C@H](Cc3cc(F)cc(F)c3)NC(=O)Cn3nc(C(F)(F)F)c4c3C(F)(F)[C@@H]3C[C@H]43)ccc(Cl)c12)S(C)(=O)=O [Compound 39, N—((S)-1-(3-(4-chloro-3-(N-((1-hydroxy-2-methylpropan-2-yl)carbamoyl)methylsulfonamido)-1-(2,2,2-trifluoroethyl)-1H-indazol-7-yl)-6-(3-methyl-3-(methylsulfonyl)but-1-yn-1-yl)pyridin-2-yl)-2-(3,5-difluorophenyl)ethyl)-2-((3bS,4aR)-5,5-difluoro-3-(trifluoromethyl)-3b,4,4a,5-tetrahydro-1H-cyclopropa[3,4]cyclopenta[1,2-c]pyrazol-1-yl)acetamide] | 1 μM | 2 μM
3 | CC(C)(C#Cc1ccc(-c2ccc(Cl)c3c(N(C(=O)NCCO)S(C)(=O)=O)nn(CC(F)(F)F)c23)c([C@H](Cc2cc(F)cc(F)c2)NC(=O)Cn2nc(C(F)(F)F)c3c2C(F)(F)[C@@H]2C[C@H]32)n1)S(C)(=O)=O [Compound 40, N—((S)-1-(3-(4-chloro-3-(N-((2-hydroxyethyl)carbamoyl)methylsulfonamido)-1-(2,2,2-trifluoroethyl)-1H-indazol-7-yl)-6-(3-methyl-3-(methylsulfonyl)but-1-yn-1-yl)pyridin-2-yl)-2-(3,5-difluorophenyl)ethyl)-2-((3bS,4aR)-5,5-difluoro-3-(trifluoromethyl)-3b,4,4a,5-tetrahydro-1H-cyclopropa[3,4]cyclopenta[1,2-c]pyrazol-1-yl)acetamide] | 1 μM | 2 μM
4 | CC(C)(C#Cc1ccc(-c2ccc(Cl)c3c(N(C(=O)NCCOP(=O)(O)O)S(C)(=O)=O)nn(CC(F)(F)F)c23)c([C@H](Cc2cc(F)cc(F)c2)NC(=O)Cn2nc(C(F)(F)F)c3c2C(F)(F)[C@@H]2C[C@H]32)n1)S(C)(=O)=O [Compound 41, 2-(3-(4-chloro-7-(2-((S)-1-(2-((3bS,4aR)-5,5-difluoro-3-(trifluoromethyl)-3b,4,4a,5-tetrahydro-1H-cyclopropa[3,4]cyclopenta[1,2-c]pyrazol-1-yl)acetamido)-2-(3,5-difluorophenyl)ethyl)-6-(3-methyl-3-(methylsulfonyl)but-1-yn-1-yl)pyridin-3-yl)-1-(2,2,2-trifluoroethyl)-1H-indazol-3-yl)-3-(methylsulfonyl)ureido)ethyl dihydrogen phosphate] | 3 μM | 17 μM
5 | CC(C)(C#Cc1ccc(-c2ccc(Cl)c3c(N(C(=O)NCCCP(=O)(O)O)S(C)(=O)=O)nn(CC(F)(F)F)c23)c([C@H](Cc2cc(F)cc(F)c2)NC(=O)Cn2nc(C(F)(F)F)c3c2C(F)(F)[C@@H]2C[C@H]32)n1)S(C)(=O)=O [Compound 54-1, (3-(3-(4-chloro-7-(2-((S)-1-(2-((3bS,4aR)-5,5-difluoro-3-(trifluoromethyl)-3b,4,4a,5-tetrahydro-1H-cyclopropa[3,4]cyclopenta[1,2-c]pyrazol-1-yl)acetamido)-2-(3,5-difluorophenyl)ethyl)-6-(3-methyl-3-(methylsulfonyl)but-1-yn-1-yl)pyridin-3-yl)-1-(2,2,2-trifluoroethyl)-1H-indazol-3-yl)-3-(methylsulfonyl)ureido)propyl)phosphonic acid] | 1 μM | 14 μM

More lines, now with the values ahead:

Row | pH 2 solubility | pH 7 solubility | SMILES
6 | 62 μM | 5 μM | CC(C)(C#Cc1ccc(-c2ccc(Cl)c3c(N(C(=O)NCCN4CCOCC4)S(C)(=O)=O)nn(CC(F)(F)F)c23)c([C@H](Cc2cc(F)cc(F)c2)NC(=O)Cn2nc(C(F)(F)F)c3c2C(F)(F)[C@@H]2C[C@H]32)n1)S(C)(=O)=O [Compound 42, N—((S)-1-(3-(4-chloro-3-(N-((2-morpholinoethyl)carbamoyl)methylsulfonamido)-1-(2,2,2-trifluoroethyl)-1H-indazol-7-yl)-6-(3-methyl-3-(methylsulfonyl)but-1-yn-1-yl)pyridin-2-yl)-2-(3,5-difluorophenyl)ethyl)-2-((3bS,4aR)-5,5-difluoro-3-(trifluoromethyl)-3b,4,4a,5-tetrahydro-1H-cyclopropa[3,4]cyclopenta[1,2-c]pyrazol-1-yl)acetamide]
7 | 1/1 μM | 1/1 μM | COC(=O)CN(C)C(=O)N(c1nn(CC(F)(F)F)c2c(-c3ccc(C#CC(C)(C)S(C)(=O)=O)nc3[C@H](Cc3cc(F)cc(F)c3)NC(=O)Cn3nc(C(F)(F)F)c4c3C(F)(F)[C@@H]3C[C@H]43)ccc(Cl)c12)S(C)(=O)=O [Compound 43, methyl N-((4-chloro-7-(2-((S)-1-(2-((3bS,4aR)-5,5-difluoro-3-(trifluoromethyl)-3b,4,4a,5-tetrahydro-1H-cyclopropa[3,4]cyclopenta[1,2-c]pyrazol-1-yl)acetamido)-2-(3,5-difluorophenyl)ethyl)-6-(3-methyl-3-(methylsulfonyl)but-1-yn-1-yl)pyridin-3-yl)-1-(2,2,2-trifluoroethyl)-1H-indazol-3-yl)(methylsulfonyl)carbamoyl)-N-methylglycinate]
8 | 1/1 μM | 1/1 μM | CN(CC(C)(C)O)C(=O)N(c1nn(CC(F)(F)F)c2c(-c3ccc(C#CC(C)(C)S(C)(=O)=O)nc3[C@H](Cc3cc(F)cc(F)c3)NC(=O)Cn3nc(C(F)(F)F)c4c3C(F)(F)[C@@H]3C[C@H]43)ccc(Cl)c12)S(C)(=O)=O [Compound 47, N—((S)-1-(3-(4-chloro-3-(N-((2-hydroxy-2-methylpropyl)(methyl)carbamoyl)methylsulfonamido)-1-(2,2,2-trifluoroethyl)-1H-indazol-7-yl)-6-(3-methyl-3-(methylsulfonyl)but-1-yn-1-yl)pyridin-2-yl)-2-(3,5-difluorophenyl)ethyl)-2-((3bS,4aR)-5,5-difluoro-3-(trifluoromethyl)-3b,4,4a,5-tetrahydro-1H-cyclopropa[3,4]cyclopenta[1,2-c]pyrazol-1-yl)acetamide]
9 | 1/1 μM | 1/1 μM | C[C@@H](O)CN(C)C(=O)N(c1nn(CC(F)(F)F)c2c(-c3ccc(C#CC(C)(C)S(C)(=O)=O)nc3[C@H](Cc3cc(F)cc(F)c3)NC(=O)Cn3nc(C(F)(F)F)c4c3C(F)(F)[C@@H]3C[C@H]43)ccc(Cl)c12)S(C)(=O)=O [Compound 48, N—((S)-1-(3-(4-chloro-3-(N—(((R)-2-hydroxypropyl)(methyl)carbamoyl)methylsulfonamido)-1-(2,2,2-trifluoroethyl)-1H-indazol-7-yl)-6-(3-methyl-3-(methylsulfonyl)but-1-yn-1-yl)pyridin-2-yl)-2-(3,5-difluorophenyl)ethyl)-2-((3bS,4aR)-5,5-difluoro-3-(trifluoromethyl)-3b,4,4a,5-tetrahydro-1H-cyclopropa[3,4]cyclopenta[1,2-c]pyrazol-1-yl)acetamide]
10 | 1 μM | 82 μM | C[C@H](CN(C)C(=O)N(c1nn(CC(F)(F)F)c2c(-c3ccc(C#CC(C)(C)S(C)(=O)=O)nc3[C@H](Cc3cc(F)cc(F)c3)NC(=O)Cn3nc(C(F)(F)F)c4c3C(F)(F)[C@@H]3C[C@H]43)ccc(Cl)c12)S(C)(=O)=O)OP(=O)(O)O [Compound 49, (R)-1-(3-(4-chloro-7-(2-((S)-1-(2-((3bS,4aR)-5,5-difluoro-3-(trifluoromethyl)-3b,4,4a,5-tetrahydro-1H-cyclopropa[3,4]cyclopenta[1,2-c]pyrazol-1-yl)acetamido)-2-(3,5-difluorophenyl)ethyl)-6-(3-methyl-3-(methylsulfonyl)but-1-yn-1-yl)pyridin-3-yl)-1-(2,2,2-trifluoroethyl)-1H-indazol-3-yl)-1-methyl-3-(methylsulfonyl)ureido)propan-2-yl dihydrogen phosphate]
11 | 1 μM | 2 μM | CN(CCO)C(=O)N(c1nn(CC(F)(F)F)c2c(-c3ccc(C#CC(C)(C)S(C)(=O)=O)nc3[C@H](Cc3cc(F)cc(F)c3)NC(=O)Cn3nc(C(F)(F)F)c4c3C(F)(F)[C@@H]3C[C@H]43)ccc(Cl)c12)S(C)(=O)=O [Compound 50, N—((S)-1-(3-(4-chloro-3-(N-((2-hydroxyethyl)(methyl)carbamoyl)methylsulfonamido)-1-(2,2,2-trifluoroethyl)-1H-indazol-7-yl)-6-(3-methyl-3-(methylsulfonyl)but-1-yn-1-yl)pyridin-2-yl)-2-(3,5-difluorophenyl)ethyl)-2-((3bS,4aR)-5,5-difluoro-3-(trifluoromethyl)-3b,4,4a,5-tetrahydro-1H-cyclopropa[3,4]cyclopenta[1,2-c]pyrazol-1-yl)acetamide]
12 | 1 μM | 100 μM | CC(NC(=O)N(c1nn(CC(F)(F)F)c2c(-c3ccc(C#CC(C)(C)S(C)(=O)=O)nc3[C@H](Cc3cc(F)cc(F)c3)NC(=O)Cn3nc(C(F)(F)F)c4c3C(F)(F)[C@@H]3C[C@H]43)ccc(Cl)c12)S(C)(=O)=O)(C(=O)O)C(=O)O [Compound 52, 2-(3-(4-chloro-7-(2-((S)-1-(2-((3bS,4aR)-5,5-difluoro-3-(trifluoromethyl)-3b,4,4a,5-tetrahydro-1H-cyclopropa[3,4]cyclopenta[1,2-c]pyrazol-1-yl)acetamido)-2-(3,5-difluorophenyl)ethyl)-6-(3-methyl-3-(methylsulfonyl)but-1-yn-1-yl)pyridin-3-yl)-1-(2,2,2-trifluoroethyl)-1H-indazol-3-yl)-3-(methylsulfonyl)ureido)-2-methylmalonic acid]
